{"source": "patent US20150176022A1", "about": "“HERBICIDE-RESISTANT SUNFLOWER PLANTS, POLYNUCLEOTIDES ENCODING HERBICIDE=RESISTANT ACETO HYDROXY ACID SYNTHASE LARGE SUBUNIT PROTEINS, AND METHODS OF USE” (priority 2013, published 2015)", "assay_type_in_all_cases": "in vivo, Helianthus annuus", "key": {"[1]": {"system": "Clearfield-Sunflower variety A", "assay": "Greenhouse spray test, injury rating (Example 5)", "conditions": "Imazapyr 240 gm ai/ha, 14 DAT, scale 0=no injury to 9=dead plant", "excerpt": "(§1) Sunflower lines S4897, Clearfield® sunflower varieties A, B, C and a conventional non-Clearfield variety were sprayed with three rates of imazamox (Raptor™), 100, 200 and 300 gm ai/ha plus 0.5% Sun It II and two rates of imazapyr (Arsenal™) 160 and 360 gm ai/ha plus 0.5% Sun It II when the plants were at the two to three leaf stage. Ratings were taken at 14 days after application (DAT) for injury. Injury was rated on a scale from 0 to 9 where 0=no injury to 9=dead plant. Twelve plants were sprayed per herbicide/rate treatment. Statistical analysis was conducted with STATGRAPHICS Plus 5.0 by using ANOVA and LSD procedures.\n(§2) After plants were sprayed, it was realized that a height difference between S4897 and other sunflower varieties would have impacted the actual herbicide dose that was delivered. The spray boom height had been calibrated against S4897 and since the other varieties were taller and closer to the boom they would have received a greater dose of herbicide. Rates were recalibrated for the other varieties to determine the approximate dose they would have received. Assessments were made as presented in Table 2 since it was not possible to make a direct rate comparison due to the effect of the height. For example injury scores were compare for S4897 treated imazamox rate 100 gm ai/ha to the other varieties treated at 75 gm ai/ha. The treatment dose of 300 gm ai/ha for line S4897 was equivalent to the treatment of 200 gm ai/ha for the other varieties, which […]."}, "[2]": {"system": "Sunflower line S4897", "assay": "Greenhouse spray test, injury rating (Example 5)", "conditions": "Imazapyr 360 gm ai/ha, 14 DAT, scale 0=no injury to 9=dead plant", "excerpt": "as §1, §2"}, "[3]": {"system": "Clearfield-Sunflower variety B", "assay": "Greenhouse spray test, injury rating (Example 5)", "conditions": "Imazapyr 240 gm ai/ha, 14 DAT, scale 0=no injury to 9=dead plant", "excerpt": "as §1, §2"}, "[4]": {"system": "Conventional non-Clearfield sunflower variety", "assay": "Greenhouse spray test, injury rating (Example 5)", "conditions": "Imazapyr 240 gm ai/ha, 14 DAT, scale 0=no injury to 9=dead plant", "excerpt": "as §1, §2"}, "[5]": {"system": "Clearfield-Sunflower variety C", "assay": "Greenhouse spray test, injury rating (Example 5)", "conditions": "Imazapyr 240 gm ai/ha, 14 DAT, scale 0=no injury to 9=dead plant", "excerpt": "as §1, §2"}, "[6]": {"system": "sunflower GM40 (Manteiner Line, A122T)", "assay": "Greenhouse whole-plant imazapir dose response (Example 8)", "conditions": "14 DAT", "description": "(§3) A greenhouse study was conducted to quantify and contrast the imazapir sensitivity of the mutants A122T and A205V in different genetic backgrounds at the whole plant level in sunflower. Seeds of the different sunflower lines that were used in this study were obtained under field conditions.\n(§4) Seeds were sown in Petri dishes and, after germination, plantlets were transplanted to pots of 10 cm of diameter in a potting media consisting of equal parts of vermiculite, soil and sand. Plants were grown in a greenhouse under natural light conditions supplemented with 400 W sodium halide lamps to provide a 16 hrs daylength. Day/night temperatures were 25 and 20° C., respectively. At the V2 stage 10 plants of each genotype were randomly assigned to each treatment consisting of […] imazapir doses (0, 40, 80, 160, 240, 320, 400 and 480 g ai/ha), and a zero-time biomass determination. Experiment was arranged as a randomized block design with a full factorial (sunflower line×treatment) arrangement of treatments and 10 replications.\n(§5) On the day of herbicide application ten plants of each genotype were cut at the cotyledonal node and dried at 60° C. for 48 hrs zero-time for dried weight determination. […] Height was determined as the distance between the cotyledonal node and the apex of each plant. For root biomass determination, each plant was taken from the pot and the potting media was washed out from the roots. Above ground biomass data from each line were converted to biomass accumulation after application by subtracting the appropriate average zero-time biomass from each sample. Dry biomass data were converted to percentages of the untreated control plants within each line to allow direct comparisons between groups."}, "[7]": {"system": "sunflower TH11 (Hybrid, A122T)", "assay": "Greenhouse whole-plant imazapir dose response (Example 8)", "conditions": "14 DAT", "description": "as §3, §4, §5"}, "[8]": {"system": "M2 plants of EMS-treated BTK47", "assay": "Selection of imidazolinone-resistant M2 plants (Example 1)", "conditions": "approximately 590,000 M2 plants sprayed at V2-V4 stage; 80 g ai/ha; greenhouse", "description": "BTK47, a Helianthus annuus L. breeding line, was chemically mutated as follows. Sixty thousand seeds of the BTK47 line were treated with a solution of ethyl methanesulfonate (EMS) for 15 hours. The treated seeds were then sown under field conditions on Dec. 16, 2002 at Nidera Experimental Station in Venado Tuerto, Santa Fe, Argentina. Approximately 30,000 M1 plants flowered and were covered with bags in order to self-pollinate each plant. Each plant was harvested and threshed by hand. On May 10, 2003 at Nidera Experimental Station in Formosa, 20 M2 seeds from each capitulum were sown under greenhouse conditions. Approximately 590,000 plants were sprayed at V2-V4 stage with imazapyr at a rate of 80 g ai/ha. […] M3 seeds from each of these eight plants were evaluated for their resistance to imazapyr. Out of these eight M3 families, one family (S4897) segregated for herbicide resistance at a ratio of 1 resistant (i.e., conferring tolerance to commercial rates of imidazolinone herbicides): 2 intermediate (i.e., partially resistant): 1 susceptible. Fully fertile resistant plants were self pollinated and harvested in order to propagate the line S4897."}}, "data": [{"smiles": "CC(C)C1(C)N=C(c2ncccc2C(=O)O)NC1=O", "note": "(centres unmarked) [imazapir, imazapyr]", "values": [{"measurement": "Injury", "setting": "[1]", "value": 5.0, "unit": "c"}, {"measurement": "Injury", "setting": "[2]; listed as Imazapyr", "value": 0.8, "unit": "a"}, {"measurement": "Injury", "setting": "[2]; listed as imazapyr", "value": "very little injury"}, {"measurement": "Injury", "setting": "[3]", "value": 4.3, "unit": "b"}, {"measurement": "Injury", "setting": "[4]", "value": 8.2, "unit": "days"}, {"measurement": "Injury", "setting": "[5]", "value": 4.9, "unit": "c"}, {"measurement": "biomass accumulation (dry biomass, % of untreated)", "setting": "[6]; 0.5× (40 g ai/ha)", "value": 96.5, "unit": "%"}, {"measurement": "plant height (% of untreated)", "setting": "[6]; 0.5× (40 g ai/ha)", "value": 99.6, "unit": "%"}, {"measurement": "root dry weight (% of untreated)", "setting": "[6]; 0.5× (40 g ai/ha)", "value": 100, "unit": "%"}, {"measurement": "biomass accumulation (dry biomass, % of untreated)", "setting": "[6]; 1× (80 g ai/ha)", "value": 94.1, "unit": "%"}, {"measurement": "plant height (% of untreated)", "setting": "[6]; 1× (80 g ai/ha)", "value": 97.4, "unit": "%"}, {"measurement": "root dry weight (% of untreated)", "setting": "[6]; 1× (80 g ai/ha)", "value": 100, "unit": "%"}, {"measurement": "biomass accumulation (dry biomass, % of untreated)", "setting": "[6]; 2× (160 g ai/ha)", "value": 97.6, "unit": "%"}, {"measurement": "plant height (% of untreated)", "setting": "[6]; 2× (160 g ai/ha)", "value": 95.2, "unit": "%"}, {"measurement": "root dry weight (% of untreated)", "setting": "[6]; 2× (160 g ai/ha)", "value": 100, "unit": "%"}, {"measurement": "biomass accumulation (dry biomass, % of untreated)", "setting": "[6]; 3× (240 g ai/ha)", "value": 95.8, "unit": "%"}, {"measurement": "plant height (% of untreated)", "setting": "[6]; 3× (240 g ai/ha)", "value": 93.0, "unit": "%"}, {"measurement": "root dry weight (% of untreated)", "setting": "[6]; 3× (240 g ai/ha)", "value": 92.2, "unit": "%"}, {"measurement": "biomass accumulation (dry biomass, % of untreated)", "setting": "[6]; 4× (320 g ai/ha)", "value": 88.3, "unit": "%"}, {"measurement": "plant height (% of untreated)", "setting": "[6]; 4× (320 g ai/ha)", "value": 93.0, "unit": "%"}, {"measurement": "root dry weight (% of untreated)", "setting": "[6]; 4× (320 g ai/ha)", "value": 96.1, "unit": "%"}, {"measurement": "biomass accumulation (dry biomass, % of untreated)", "setting": "[6]; 5× (400 g ai/ha)", "value": 85.6, "unit": "%"}, {"measurement": "plant height (% of untreated)", "setting": "[6]; 5× (400 g ai/ha)", "value": 93.9, "unit": "%"}, {"measurement": "root dry weight (% of untreated)", "setting": "[6]; 5× (400 g ai/ha)", "value": 84.2, "unit": "%"}, {"measurement": "biomass accumulation (dry biomass, % of untreated)", "setting": "[6]; 6× (480 g ai/ha)", "value": 76.8, "unit": "%"}, {"measurement": "plant height (% of untreated)", "setting": "[6]; 6× (480 g ai/ha)", "value": 84.3, "unit": "%"}, {"measurement": "root dry weight (% of untreated)", "setting": "[6]; 6× (480 g ai/ha)", "value": 74.3, "unit": "%"}, {"measurement": "Phytotoxicity Index", "setting": "[7]; 0.5× (40 g ai/ha)", "value": 0.4}, {"measurement": "biomass accumulation (dry biomass, % of untreated)", "setting": "[7]; 0.5× (40 g ai/ha)", "value": 96.6, "unit": "%"}, {"measurement": "plant height (% of untreated)", "setting": "[7]; 0.5× (40 g ai/ha)", "value": 100.4, "unit": "%"}, {"measurement": "root dry weight (% of untreated)", "setting": "[7]; 0.5× (40 g ai/ha)", "value": 100, "unit": "%"}, {"measurement": "Phytotoxicity Index", "setting": "[7]; 1× (80 g ai/ha)", "value": 0.4}, {"measurement": "biomass accumulation (dry biomass, % of untreated)", "setting": "[7]; 1× (80 g ai/ha)", "value": 93.9, "unit": "%"}, {"measurement": "plant height (% of untreated)", "setting": "[7]; 1× (80 g ai/ha)", "value": 99.9, "unit": "%"}, {"measurement": "root dry weight (% of untreated)", "setting": "[7]; 1× (80 g ai/ha)", "value": 99.0, "unit": "%"}, {"measurement": "Phytotoxicity Index", "setting": "[7]; 2× (160 g ai/ha)", "value": 0.4}, {"measurement": "biomass accumulation (dry biomass, % of untreated)", "setting": "[7]; 2× (160 g ai/ha)", "value": 81.6, "unit": "%"}, {"measurement": "plant height (% of untreated)", "setting": "[7]; 2× (160 g ai/ha)", "value": 92.0, "unit": "%"}, {"measurement": "root dry weight (% of untreated)", "setting": "[7]; 2× (160 g ai/ha)", "value": 86.1, "unit": "%"}, {"measurement": "Phytotoxicity Index", "setting": "[7]; 3× (240 g ai/ha)", "value": 0.5}, {"measurement": "biomass accumulation (dry biomass, % of untreated)", "setting": "[7]; 3× (240 g ai/ha)", "value": 75.8, "unit": "%"}, {"measurement": "plant height (% of untreated)", "setting": "[7]; 3× (240 g ai/ha)", "value": 90.5, "unit": "%"}, {"measurement": "root dry weight (% of untreated)", "setting": "[7]; 3× (240 g ai/ha)", "value": 81.5, "unit": "%"}, {"measurement": "Phytotoxicity Index", "setting": "[7]; 4× (320 g ai/ha)", "value": 1.0}, {"measurement": "biomass accumulation (dry biomass, % of untreated)", "setting": "[7]; 4× (320 g ai/ha)", "value": 75.0, "unit": "%"}, {"measurement": "plant height (% of untreated)", "setting": "[7]; 4× (320 g ai/ha)", "value": 90.8, "unit": "%"}, {"measurement": "root dry weight (% of untreated)", "setting": "[7]; 4× (320 g ai/ha)", "value": 72.6, "unit": "%"}, {"measurement": "Phytotoxicity Index", "setting": "[7]; 5× (400 g ai/ha)", "value": 2.0}, {"measurement": "biomass accumulation (dry biomass, % of untreated)", "setting": "[7]; 5× (400 g ai/ha)", "value": 60.1, "unit": "%"}, {"measurement": "plant height (% of untreated)", "setting": "[7]; 5× (400 g ai/ha)", "value": 84.4, "unit": "%"}, {"measurement": "root dry weight (% of untreated)", "setting": "[7]; 5× (400 g ai/ha)", "value": 68.9, "unit": "%"}, {"measurement": "Phytotoxicity Index", "setting": "[7]; 6× (480 g ai/ha)", "value": 2.5}, {"measurement": "biomass accumulation (dry biomass, % of untreated)", "setting": "[7]; 6× (480 g ai/ha)", "value": 59.6, "unit": "%"}, {"measurement": "plant height (% of untreated)", "setting": "[7]; 6× (480 g ai/ha)", "value": 84.4, "unit": "%"}, {"measurement": "root dry weight (% of untreated)", "setting": "[7]; 6× (480 g ai/ha)", "value": 45.3, "unit": "%"}, {"measurement": "plants surviving the herbicide treatment", "setting": "[8]", "value": "Eight plants survived"}]}]}
